“And” between values parts separate entries of the source, which are not always exact repeats. Equal entries are not always repeated.
How the values were obtained:
human telomerase = molecular target: T1, human telomerase (Homo sapiens, UniProt O14746); assay: Cell-free telomerase inhibition, conventional or modified assay not stated; format: biochemical
T1 construct: telomerase in S100 extracts of transformed human fetal kidney tumor 293 cells (a processive telomerase); endogenous in cells; host or cells: human cells, (S100 extract)
Procedure: Selected nucleoside triphosphates were tested in one or both of the “conventional” or “modified” telomerase assays described in Methods using the human processive and the CHO non-processive telomerases. Initially, three chain-terminators were selected: 2′,3′-dideoxythymidine triphosphate (ddTTP), 3′-fluoro-2′,3′-dideoxythymidine triphosphate (F-ddTTP), and 3′-azido-2′-, 3′-dideoxythymidine triphosphate (AZ-ddTTP) as prototype agents to investigate whether they could inhibit telomerase activity. The three compounds are dTTP analogs without a 3′-OH group for subsequent chain elongation. They may either incorporate into the telomere sequence and terminate further chain elongation or compete directly with dTTP for the substrate binding site in the telomerase reaction. In either case, telomerase activity is inhibited.

[1] = molecular target: T2, human 293 cell telomerase (Homo sapiens, UniProt O14746); assay: Conventional telomerase assay (32P-dGTP as radiolabel substrate); format: biochemical
T2 construct: with 20 μl of S100 enzyme extract; endogenous in cells; host or cells: 293 cells (transformed human embryonic kidney), S100 extract
Procedure: (§1) Telomerase was prepared from transformed human embryonic kidney 293 cell line. Human embryonic kidney 293 cells were grown in Joklik's modified MEM niedium (Sigma, St Louis, Mo.) supplemented with 5% fetal bovine serum at 37° C. in a humidified atmosphere with 5% CO2. The cells were subcultured at 1-2×10^5 cells/ml twice a week. When the cells grew to approximately 1×10^6 cells/ml, the cells (˜2×10^9 cells) were centrifuged and transferred into polypropylene centrifuge (50 ml) tubes and kept on ice. The cells were then centrifuged in a (Beckman GS-6R) centrifuge at 1200 RPM for 10 minutes at 4° C., and resuspended in PBS. The washed cells were resuspended in 15 ml Hypobuffer Mix (10 mM HEPES, pH 8.0, 3 mM KCl, 1 mM MgCl2, 1 mM dithiothreitol, 1 μM leupeptin, 0.1 mM PMSF, 10 μM pepstatin, 0.83 μg/ml chymostatin, 0.83 μg/ml antipain, and 43.2 units/ml RNase Guard) and centrifuged. The cell pellets were resuspended in 0.75×volumes Hypobuffer [Hypobuffer Mix+40 units/ml RNase Guard (Pharmacia, N.J.) to allow the cells to swell. The cell suspensions were homogenized to allow the telomerase to “leak” into the cytosolic fraction. The lysate was then poured into new, autoclaved, 3 ml polyallomer ultracentrifuge tubes and centrifuged at 100,000×g for 1 hour at 4° C. A top lipid layer was carefully removed and discarded, and the supernatant was collected. 1/50 of the volume of 5 M NaCl was added to the clear supernatant fluid to achieve a final concentration of 0.1 M. Sterile glycerol was added until the final glycerol concentration was 20%. The enzyme solution was aliquoted into Eppendorf tubes and quickly frozen in liquid nitrogen and stored at −70° C.
The assay is based on the ability of the telomerase enzyme in the S100 fractions to recognize an 18-base DNA primer with the DNA sequence (TTAGGG)3. DNA polymerization initiates from the 3′-OH group of the oligonucleotide. By reading from its complementary internal RNA template, telomerase adds a repeated set of 5′-TTAGGG-3′ to the original 18-base primer. Non-synchronous “starts” and “terminations” among the different enzyme complexes result in a degenerative set of different length DNA primers occurring in 6-base increments. Incorporation of [α-^32P]dGTP at the guanine positions of the 5′-TTAGGG-3′ sequence allows the newly synthesized DNA fragments to be visualized by autoradiography. The resulting image forms the characteristic “ladder” structure that is used to identify telomerase activity. The images are scanned using a phosphoimager or laser densitometer (Molecular Dynamics, Sunnyvale, Calif.). Comparisons of the total volumes under the corresponding peaks are used to quantitate the total amount of [α-^32P] incorporated in the primer extension reaction.
The telomerase assay was initiated by mixing 20 μl of 2×reaction mix (100 mM Tris-OAc, pH 8.5, 100 mM KOAc, 10 mM β-mercaptoethanol, 2 mM spermidine, 2 mM MgCl2, 2 mM dATP, 2 mM dTTP, 2 μM oligo primer, potential inhibitors of interest at the appropriate concentration, and 50 μCi [α^32-P]dGTP) with 20 μl of S100 enzyme extract. The reaction mixture was then incubated at 30° C. for 1 hour. The reaction was stopped by incubating sequentially with 50 μl of the stop solution (10 mM Tris pH 7.5, 20 mM EDTA, 0.1 mg/ml RNase A) and 50 μl of deproteinase solution (10 mM Tris pH 7.5, 0.5% SDS, 0.3 mg/ml Proteinase K). The mixture was extracted with 50% phenol/50% chloroform (v/v). The DNA was then precipitated by adding 2.5×volumes of cold EtOH and letting it stand overnight at −70° C. The DNAs were separated on an 8% polyacrylamide/7M urea denaturing gel at 1600 V for 1.5 hours. The gel was dried and exposed to Kodak XAR-5 film to gel in −70° C. Typical autoradiographic exposures required 3-14 days.

[2] = molecular target: T2, human 293 cell telomerase; assay: Modified telomerase assay (32P-dATP as radiolabeled substrate); format: biochemical
Procedure: as §1
In the conventional telomerase assay, the concentrations of both non-radiolabeled nucleotides, dATP and dTTP, are 1 mM, and the concentration of the radiolabeled [^32P]dGTP is 1.56 μM. Because of the high concentration of dATP and dTTP, the standard assay may not be suitable for determining the potential telomerase inhibition of any “Adenine or Thymine” analogs. […] All other chemicals and reaction conditions are identical to the conventional assay.

human cancer telomerase = molecular target: T3, human cancer telomerase (Homo sapiens, UniProt O14746); assay: Nucleoside triphosphate as telomerase substrate, dGTP replaced in modified reaction; format: biochemical
T3 construct: endogenous in cells; host or cells: human cancer cells

HeLa cell telomerase = molecular target: T4, HeLa cell telomerase (Homo sapiens, UniProt O14746); assay: HeLa cell telomerase assay; format: biochemical; conditions: for IC50: HeLa cell telomerase
T4 construct: endogenous in cells; host or cells: HeLa cells (human cervical tumor)

PC3 = assay: Growth inhibition (MTT), PC3; format: cell-based; conditions: Homo sapiens, PC-3, 144 h, 6 days
Procedure: (§2) Exponentially growing cells (1-2×10^3 cells, unless specified otherwise) in 0.1 ml medium were seeded on day 0 in a 96-well microtiter plate. On day 1, 0.1 ml aliquots of medium containing graded concentrations of test analogs were added in duplicate to the cell plates. After incubation at 37° C. in a humidified incubator for 6 days, the plates were centrifuged briefly and 100 μl of the growth medium was removed. Cell cultures were incubated with 50 μl of 3-(4,5-dimethylthiazol-2-yl)-2,5-diphenyl-tetrazolium bromide, (MTT) at a concentration of 1 mg/ml in Dulbecco's phosphate buffered saline (PBS)) for 4 hr at 37° C. The resulting purple formazan precipitate was solubilized with 200 μl of 0.04 N HCl in isopropyl alcohol. Absorbance was monitored in a BioRad Model 3550 Microplate Reader at a test wavelength of 570 nm and a reference wavelength of 630 nm. The absorbance was transferred to a PC 486 computer. The IC50 values were determined by a computer program (EZ-ED50) that fits all the data to the following four-parameter logistic equation: [formula]
(§3) where Amax is the absorbance of control cells, Amin is the absorbance of cells in the presence of highest agent concentration, Y is the observed absorbance, X is the agent concentration, IC50 is the concentration of agent that inhibits the cell growth by 50% of control cells (based on the absorbance) and n is the slope of the curve.
(§4) This is due to the extracellular dephosphorylation of the mono-, di-, or triphosphates by […] or 5′-nucleotidase back to the nucleoside. With this in mind, the inventors used only nucleosides rather than nucleoside triphosphates in these studies. Cultured tumor cells were incubated with selected nucleosides at graded concentrations for 6 days and the growth inhibition was determined by the standard MTT assay.

DU145 = assay: Growth inhibition (MTT), DU145; format: cell-based; conditions: Homo sapiens, DU-145, 144 h, 6 days
Procedure: as §2, §3, §4

Raji = assay: Growth inhibition (MTT), Raji; format: cell-based; conditions: Homo sapiens, 144 h, 6 days
Procedure: as §2, §3, §4

MDA-231 = assay: Growth inhibition (MTT), MDA-231; format: cell-based; conditions: Homo sapiens, MDA-MB-231, 144 h, 6 days
Procedure: as §2, §3, §4

MCF-7 = assay: Growth inhibition (MTT), MCF-7; format: cell-based; conditions: Homo sapiens, MCF7, 144 h, 6 days
Procedure: as §2, §3, §4

BT-20 = assay: Growth inhibition (MTT), BT-20; format: cell-based; conditions: Homo sapiens, BT-20, 144 h, 6 days
Procedure: as §2, §3, §4

SKBR3 = assay: Growth inhibition (MTT), SKBR3; format: cell-based; conditions: Homo sapiens, SK-BR-3, 144 h, 6 days
Procedure: as §2, §3, §4

[3] = tested on: human colon carcinoma HT29 cells; assay: Growth inhibition (MTT), HT29 cells; format: cell-based; conditions: HT-29, 144 h, 6 days
Procedure: as §2, §3, §4

[4] = tested on: transformed human embryonic kidney 293 cells; assay: Growth inhibition (MTT), 293 cells; format: cell-based; conditions: HEK293, 144 h, 6 days
Procedure: as §2, §3, §4

T3 sequence (O14746 whole entry): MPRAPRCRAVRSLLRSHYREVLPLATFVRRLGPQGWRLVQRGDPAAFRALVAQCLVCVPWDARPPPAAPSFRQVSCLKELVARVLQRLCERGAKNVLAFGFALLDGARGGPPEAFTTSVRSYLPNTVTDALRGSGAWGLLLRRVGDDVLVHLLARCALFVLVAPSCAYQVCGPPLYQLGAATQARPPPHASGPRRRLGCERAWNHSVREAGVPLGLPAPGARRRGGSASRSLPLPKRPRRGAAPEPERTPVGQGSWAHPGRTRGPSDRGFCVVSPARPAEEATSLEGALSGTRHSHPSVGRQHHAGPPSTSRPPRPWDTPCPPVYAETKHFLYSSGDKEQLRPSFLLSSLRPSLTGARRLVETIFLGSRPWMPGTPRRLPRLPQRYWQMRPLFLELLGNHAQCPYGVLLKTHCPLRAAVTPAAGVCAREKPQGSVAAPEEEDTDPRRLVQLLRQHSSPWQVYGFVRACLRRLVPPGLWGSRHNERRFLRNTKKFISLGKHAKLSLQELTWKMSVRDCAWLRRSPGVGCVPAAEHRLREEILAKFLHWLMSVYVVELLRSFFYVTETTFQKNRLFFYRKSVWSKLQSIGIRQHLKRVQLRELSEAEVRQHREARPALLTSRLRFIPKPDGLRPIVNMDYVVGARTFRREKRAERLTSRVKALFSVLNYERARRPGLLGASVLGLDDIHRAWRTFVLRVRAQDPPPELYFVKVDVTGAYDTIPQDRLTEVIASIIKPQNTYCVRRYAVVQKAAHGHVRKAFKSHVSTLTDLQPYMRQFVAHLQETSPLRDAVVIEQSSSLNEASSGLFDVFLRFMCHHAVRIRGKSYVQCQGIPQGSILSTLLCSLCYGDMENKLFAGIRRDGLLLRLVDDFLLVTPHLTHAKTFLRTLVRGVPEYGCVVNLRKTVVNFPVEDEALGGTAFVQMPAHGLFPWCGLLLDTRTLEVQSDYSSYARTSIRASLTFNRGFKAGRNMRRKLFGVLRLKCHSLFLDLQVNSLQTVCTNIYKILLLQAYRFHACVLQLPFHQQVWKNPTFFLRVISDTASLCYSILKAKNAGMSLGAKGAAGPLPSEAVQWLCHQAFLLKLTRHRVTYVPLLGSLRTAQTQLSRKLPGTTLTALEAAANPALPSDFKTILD
T3 sequence (O60832 whole entry partner): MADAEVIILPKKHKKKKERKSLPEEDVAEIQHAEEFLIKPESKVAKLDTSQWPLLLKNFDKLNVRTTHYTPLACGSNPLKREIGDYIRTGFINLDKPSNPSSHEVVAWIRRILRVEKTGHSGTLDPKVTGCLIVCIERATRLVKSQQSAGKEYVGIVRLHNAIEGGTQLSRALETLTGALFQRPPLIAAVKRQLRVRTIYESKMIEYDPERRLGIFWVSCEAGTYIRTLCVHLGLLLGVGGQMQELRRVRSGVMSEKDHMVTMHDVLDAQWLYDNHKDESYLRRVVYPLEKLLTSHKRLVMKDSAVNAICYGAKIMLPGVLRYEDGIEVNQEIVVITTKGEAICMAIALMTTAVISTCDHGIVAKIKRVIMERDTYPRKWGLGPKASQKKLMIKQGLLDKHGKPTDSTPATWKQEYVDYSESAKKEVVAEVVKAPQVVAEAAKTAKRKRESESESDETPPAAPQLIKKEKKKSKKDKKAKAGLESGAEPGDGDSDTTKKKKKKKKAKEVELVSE
T3 sequence (Q9NPE3 whole entry partner): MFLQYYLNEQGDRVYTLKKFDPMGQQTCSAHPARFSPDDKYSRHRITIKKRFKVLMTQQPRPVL
T3 sequence (Q9NX24 whole entry partner): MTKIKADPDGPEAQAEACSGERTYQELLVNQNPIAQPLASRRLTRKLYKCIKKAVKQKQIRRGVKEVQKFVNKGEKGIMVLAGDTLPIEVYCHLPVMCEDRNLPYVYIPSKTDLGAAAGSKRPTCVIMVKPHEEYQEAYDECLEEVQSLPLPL
T3 sequence (Q9NY12 whole entry partner): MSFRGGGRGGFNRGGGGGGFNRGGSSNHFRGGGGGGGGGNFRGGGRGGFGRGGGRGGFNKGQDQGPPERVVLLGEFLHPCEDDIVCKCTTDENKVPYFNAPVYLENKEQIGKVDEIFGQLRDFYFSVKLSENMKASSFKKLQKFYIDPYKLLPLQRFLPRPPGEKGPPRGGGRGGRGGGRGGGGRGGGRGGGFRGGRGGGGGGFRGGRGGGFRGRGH
T2 sequence (O14746 whole entry): as the sequence (O14746 whole entry) above
T2 sequence (O60832 whole entry partner): as the sequence (O60832 whole entry partner) above
T2 sequence (Q9NPE3 whole entry partner): as the sequence (Q9NPE3 whole entry partner) above
T2 sequence (Q9NX24 whole entry partner): as the sequence (Q9NX24 whole entry partner) above
T2 sequence (Q9NY12 whole entry partner): as the sequence (Q9NY12 whole entry partner) above
T4 sequence (O14746 whole entry): as the sequence (O14746 whole entry) above
T4 sequence (O60832 whole entry partner): as the sequence (O60832 whole entry partner) above
T4 sequence (Q9NPE3 whole entry partner): as the sequence (Q9NPE3 whole entry partner) above
T4 sequence (Q9NX24 whole entry partner): as the sequence (Q9NX24 whole entry partner) above
T4 sequence (Q9NY12 whole entry partner): as the sequence (Q9NY12 whole entry partner) above
T1 sequence (O14746 whole entry): as the sequence (O14746 whole entry) above
T1 sequence (O60832 whole entry partner): as the sequence (O60832 whole entry partner) above
T1 sequence (Q9NPE3 whole entry partner): as the sequence (Q9NPE3 whole entry partner) above
T1 sequence (Q9NX24 whole entry partner): as the sequence (Q9NX24 whole entry partner) above
T1 sequence (Q9NY12 whole entry partner): as the sequence (Q9NY12 whole entry partner) above

Row | IC50 (HeLa cell telomerase) | IC50 (PC3) | IC50 (DU145) | IC50 (Raji) | IC50 (MCF-7) | IC50 (BT-20) | IC50 (SKBR3) | Compound | IC50 (MDA-231) | also measured
1 | 4.9 µM | – | – | – | – | – | – | COc1nc(N)nc2c1ccn2[C@H]1C[C@H](O)[C@@H](COP(=O)(O)OP(=O)(O)OP(=O)(O)O)O1 [Compound 6, 6-Methoxy-7-deaza-2′-deoxyguanosine Triphosphate] | – | –
2 | 159 µM | – | – | – | – | – | – | Cn1c(N)nc2c(ccn2[C@H]2C[C@H](O)[C@@H](COP(=O)(O)OP(=O)(O)OP(=O)(O)O)O2)c1=O [Compound 7, 1-Methyl-7-deaza-2′-deoxyguanosine Triphosphate] | – | incorporation into telomeric ladders, replacing dGTP (human cancer telomerase; modified assay, 1 mM dTTP, 3.12 μM [α-32P]dATP): incorporation
3 | – | 209 µM | > 100 µM | 103 µM | 108 µM | 84 µM | 108 µM | Nc1nc2c(ccn2[C@H]2C[C@H](O)[C@@H](CO)O2)c(=S)[nH]1 [NA028, 6-Thio-7-Deaza-2′-Deoxyguanosine] | 117 µM | IC50 [3]: 461 µM; IC50 [4]: 461 µM

The next lines start with the compound.

Row | Compound | IC50 (HeLa cell telomerase) | IC50 (PC3) | IC50 (DU145) | IC50 (Raji) | IC50 (MCF-7) | IC50 (BT-20) | IC50 (SKBR3) | IC50 (MDA-231) | also measured
4 | Nc1nc2c(ccn2[C@H]2C[C@H](O)[C@@H](COP(=O)(O)OP(=O)(O)OP(=O)(O)O)O2)c(=O)[nH]1 [NA022, 7-Deaza-2′-Deoxyguanosine-5′-Triphosphate] | – | – | – | – | – | – | – | – | IC50 (human telomerase; Summary values, assay variant not stated, read-out: IC50): 6.8 µM; times more potent than AZT-TP (human telomerase; from IC50 values): at least 50 times; remaining activity at 1 µM ([1]; 1.0 μM, read-out: % of Control): 99%; remaining activity at 2.5 µM ([1]; 2.5 μM, read-out: % of Control): 114%; remaining activity at 5 µM ([1]; 5.0 μM, read-out: % of Control): 67%; remaining activity at 7.5 µM ([1]; 7.5 μM, read-out: % of Control): 81%; remaining activity at 10 µM ([1]; 10 μM, read-out: % of Control): 24%; remaining activity at 25 µM ([1]; 25 μM, read-out: % of Control): 27%; remaining activity at 50 µM ([1]; 50 μM, read-out: % of Control): 18%; remaining activity at 75 µM ([1]; 75 μM, read-out: % of Control): 0%; remaining activity at 100 µM ([1]; 100 μM, read-out: % of Control): 0%; IC50 ([1]; [α-32P]dGTP 1.56 μM, TTP and dATP 1 mM): 11 µM; Inhibition of 293 Telomerase, Conventional Assay *dGTP ([1]; up to 2 mM): concentration-dependent inhibition; IC50 ([2]; [α-32P]dATP 3.12 μM, TTP and dGTP 1 mM): 56 µM and < 100 µM; Inhibition of 293 cell telomerase, modified assay ([2]; competing radioactive nucleotide 3.12 μM [α32P]dATP): concentration-dependent inhibition; Substrate of 293 Telomerase (human cancer telomerase; dGTP analog): Is a substrate Produces short telomere Substrate Inhibition; concentration above which there was no activity (human cancer telomerase; dGTP replaced, 1 mM dTTP, 3.12 μM [α-32P]dATP): > 1.5 mM
5 | Cn1c(N)nc2c(ccn2[C@H]2C[C@H](O)[C@@H](CO)O2)c1=O [Compound 5, 1-N-methyl-7-deaza-2′-deoxyguanosine] | 159 µM | 93.4 µM | > 50 µM | 43.4 µM | 57.5 µM | 60.3 µM | – | > 50 µM | –
6 | CSc1nc(N)nc2c1ccn2C1CC(O)C(CO)O1 (stereo not shown) [Compound 3, 6-Thiomethyl-7-deaza-2′-deoxyguanosine] | – | > 100 µM | > 100 µM | 84.1 µM | 88.6 µM | 94.3 µM | 74 µM | 281 µM | –
7 | COc1nc(N)nc2c1ccn2[C@H]1C[C@H](O)[C@@H](CO)O1 [6-methoxy-7-deaza-2′-deoxyguanosine] | 4.9 µM | – | – | – | – | – | – | – | –
8 | CSc1nc(N)nc2c1ccn2[C@H]1C[C@H](O)[C@@H](COP(=O)(O)OP(=O)(O)OP(=O)(O)O)O1 [Compound 9, 6-Thiomethyl-7-deaza-2′-deoxyguanosine Triphosphate] | – | – | – | – | – | – | – | – | inhibition in a HeLa cell telomerase assay (HeLa cell telomerase; up to 62.5 μM): no inhibition
9 | Nc1nc2c(c(=S)[nH]1)CC=N2 [6-thio-7-deaza guanine] | – | 120 µM | > 100 µM | 84.1 µM | 84.2 µM | 258 µM | 74 µM | > 50 µM | –
